Bounds are passed on as bounds.

The test system of assay [1] is HIV/HA (H7) pseudotype virus. The format is cell-based, influenza virus (H7).
For assay [2], the system named is HIV/VSV-G pseudotype virus. As to the kind of experiment: organism not typed. The format is cell-based, vesicular stomatitis virus.
The subject of another assay is Influenza H1N1 (PR8). Type of assay: cell-based, influenza virus H1N1 (PR8).
The subject of assay [3] is HIV/HA (H5) pseudotype virus. As to the kind of experiment: organism not typed. The format is cell-based, influenza A virus H5N1.
For the next assay, the system named is HIV/MLV pseudotype virus. The format is cell-based.

As usually defined, the IC90 is the concentration needed for an effect of 90%. A low value points to greater potency. As a reminder, the IC50 is the concentration needed to halve the response being measured. Lower therefore signals higher potency. Regarding `O=C(CN(c1ccc(Cl)cc1Cl)S(=O)(=O)c1ccccc1)Nc1ccccc1F` [Compound 2], the IC90 was greater than 100 µM in assay [1], greater than 100 µM in assay [2], 3.9 µM in assay [3] and 99 µM in the assay on HIV/MLV pseudotype virus. In the assay on Influenza H1N1 (PR8), this compound returned a concentration for half-maximal inhibition (IC50) of 5.2 µM.
